Measurements from ChEMBL document CHEMBL5390209, “Spinosyn A and Its Derivative Inhibit Colorectal Cancer Cell Growth via the EGFR Pathway” (J Nat Prod, 2023).
Each block holds one compound with its values, some of them ahead of it. The source made the active and inactive calls. The calls are words filed in the database; no cut-off is given here.

Key:
[1] = target: Epidermal growth factor receptor (Homo sapiens) (UniProt P00533); experiment: Inhibition of EGFR in human HT-29 cells assessed as reduction in MEK1/2 phosphorylation level at 15 uM by Western blot analysis; type: cell-based; details: time 3-15 hrs, TDE = time-dependent effect
[2] = target: Epidermal growth factor receptor (Homo sapiens) (UniProt P00533); experiment: Inhibition of EGFR in human HT-29 cells at 15 uM by Western blot analysis; type: cell-based; details: time 3-15 hrs, TDE = time-dependent effect
[3] = tested on: HT-29; experiment: Inhibition of colony formation in EGFR knockdown human HT-29 cells at 6 uM incubated for 14 days by crystal violet staining based colony formation assay; type: functional, cell-based; details: time 14.0 day
[4] = Toxicity in human HT-29 cells xenografted Balb/c mouse assessed as change in body weight at 5 mg/kg/day, ip administrated for every other day and measured after 6 days; type: organism-based; details: in vivo, 144 h, time 6 day
[5] = target: Epidermal growth factor receptor (Homo sapiens) (UniProt P00533); experiment: Inhibition of EGFR in human HT-29 cells assessed as reduction in Erk1/2 phosphorylation level at 15 uM by Western blot analysis; type: cell-based; details: time 3-15 hrs, TDE = time-dependent effect
[6] = tested on: HT-29; experiment: Inhibition of colony formation in human HT-29 cells at 6 uM incubated for 14 days by crystal violet staining based colony formation assay; type: functional, cell-based; details: time 14.0 day
[7] = tested on: HT-29; experiment: Antitumor activity against human HT-29 cells xenografted Balb/c mouse assessed as reduction in tumor growth at 5 mg/kg/day, ip administrated for every other day and measured after 28 days; type: functional, organism-based; details: time 28.0 day
[8] = tested on: DLD-1; experiment: Inhibition of colony formation in human DLD-1 cells at 6 uM incubated for 14 days by crystal violet staining based colony formation assay; type: functional, cell-based; details: time 14.0 day
[9] = Toxicity in human HT-29 cells xenografted Balb/c mouse assessed as change in lung pathology at 5 mg/kg/day, ip administrated for every other day and measured after 28 days; type: organism-based; details: in vivo, 672 h, time 28 day
[10] = tested on: SW480; experiment: Inhibition of colony formation in EGFR knockdown human SW480 cells at 6 uM incubated for 14 days by crystal violet staining based colony formation assay; type: functional, cell-based; details: time 14.0 day
[11] = tested on: HT-29; experiment: Antitumor activity against human HT-29 cells xenografted Balb/c mouse assessed as inhibited tumor growth at 5 mg/kg/day, ip administrated for every other day and measured after 6 days; type: functional, organism-based; details: time 6.0 day
[12] = target: Epidermal growth factor receptor (Homo sapiens) (UniProt P00533); experiment: Inhibition of EGFR in human HT-29 cells assessed as reduction in STAT3 phosphorylation level at 15 uM by Western blot analysis; type: cell-based; details: time 3-15 hrs, TDE = time-dependent effect
[13] = target: Epidermal growth factor receptor (Homo sapiens) (UniProt P00533); experiment: Inhibition of EGFR in human SW480 cells assessed as reduction in MEK1/2 phosphorylation level at 3.75 to 15 uM incubated for 24 hrs by Western blot analysis; type: cell-based; details: dose 3.75-15 µM
[14] = target: Epidermal growth factor receptor (Homo sapiens) (UniProt P00533); experiment: Inhibition of EGFR in human SW480 cells assessed as reduction in Erk1/2 phosphorylation level at 3.75 to 15 uM incubated for 24 hrs by Western blot analysis; type: cell-based; details: dose 3.75-15 µM
[15] = Toxicity in human HT-29 cells xenografted Balb/c mouse assessed as change in kidney pathology at 5 mg/kg/day, ip administrated for every other day and measured after 28 days; type: organism-based; details: in vivo, 672 h, time 28 day
[16] = tested on: LoVo; experiment: Inhibition of colony formation in human LoVo cells at 6 uM incubated for 14 days by crystal violet staining based colony formation assay; type: functional, cell-based; details: time 14.0 day
[17] = tested on: SW480; experiment: Inhibition of colony formation in human SW480 cells at 6 uM incubated for 14 days by crystal violet staining based colony formation assay; type: functional, cell-based; details: time 14.0 day
[18] = tested on: HT-29; experiment: Antitumor activity against human HT-29 cells xenografted Balb/c mouse assessed as reduction in tumor cell density at 5 mg/kg/day, ip administrated for every other day and measured after 28 days by Hematoxylin and Eosin staining based method; type: functional, organism-based; details: time 28.0 day
[19] = tested on: HCT-116; experiment: Inhibition of colony formation in human HCT-116 cells at 0.75 uM incubated for 14 days by crystal violet staining based colony formation assay; type: functional, cell-based; details: time 14.0 day
[20] = tested on: SW480; experiment: Inhibition of colony formation in EGFR knockdown human SW480 cells at 0.75 uM incubated for 14 days by crystal violet staining based colony formation assay; type: functional, cell-based; details: time 14.0 day
[21] = target: Epidermal growth factor receptor (Homo sapiens) (UniProt P00533); experiment: Inhibition of EGFR in human HT-29 cells assessed as reduction in STAT3 phosphorylation level at 2 uM by Western blotting analysis; type: cell-based; details: time 3-15 hrs, TDE = time-dependent effect
[22] = tested on: LoVo; experiment: Inhibition of colony formation in human LoVo cells at 0.75 uM incubated for 14 days by crystal violet staining based colony formation assay; type: functional, cell-based; details: time 14.0 day
[23] = tested on: HT-29; experiment: Inhibition of colony formation in double EGFR/HER2 knockdown human HT-29 cells at 0.75 uM incubated for 14 days by crystal violet staining based colony formation assay; type: functional, cell-based; details: time 14.0 day
[24] = tested on: HT-29; experiment: Inhibition of EGFR in human HT-29 cells xenografted in BALB/c nude mouse assessed as EGFR protein level in tumor at 2.5 mg/kg/day, ip administrated for every other day and measured after 28 days by Western blotting analysis; type: functional, organism-based; details: time 28.0 day
[25] = Toxicity in human HT-29 cells xenografted Balb/c mouse assessed as change in liver pathology at 2.5 mg/kg/day, ip administrated for every other day and measured after 28 days; type: organism-based; details: in vivo, 672 h, time 28 day
[26] = target: Epidermal growth factor receptor (Homo sapiens) (UniProt P00533); experiment: Inhibition of EGFR in human SW480 cells assessed as reduction in MEK1/2 phosphorylation level at 0.5 to 2 uM incubated for 24 hrs by Western blotting analysis; type: cell-based; details: dose 0.5-2 µM
[27] = tested on: HT-29; experiment: Antitumor activity against human HT-29 cells xenografted Balb/c mouse assessed as reduction in tumor growth at 2.5 mg/kg/day, ip administrated for every other day and measured after 28 days; type: functional, organism-based; details: time 28.0 day
[28] = target: Epidermal growth factor receptor (Homo sapiens) (UniProt P00533); experiment: Inhibition of EGFR in human SW480 cells assessed as reduction in STAT3 phosphorylation level at 0.5 to 2 uM incubated for 24 hrs by Western blot analysis; type: cell-based; details: dose 0.5-2 µM
[29] = tested on: HT-29; experiment: Inhibition of HER2 in human HT-29 cells xenografted in BALB/c nude mouse assessed as reduction in HER2 protein expression level at 2.5 mg/kg/day, ip administrated for every other day and measured after 28 days by immunohistochemistry staining based analysis; type: functional, organism-based; details: time 28.0 day
[30] = Toxicity in human HT-29 cells xenografted Balb/c mouse assessed as change in body weight at 2.5 mg/kg/day, ip administrated for every other day and measured after 6 days; type: organism-based; details: in vivo, 144 h, time 6 day
[31] = target: Epidermal growth factor receptor (Homo sapiens) (UniProt P00533); experiment: Inhibition of EGFR in human SW480 cells assessed as reduction in Erk1/2 phosphorylation level at 0.5 to 2 uM incubated for 24 hrs by Western blotting analysis; type: cell-based; details: dose 0.5-2 µM
[32] = tested on: HT-29; experiment: Antitumor activity against human HT-29 cells xenografted Balb/c mouse assessed as inhibited tumor growth at 2.5 mg/kg/day, ip administrated for every other day and measured after 6 days; type: functional, organism-based; details: time 6.0 day
[33] = target: Epidermal growth factor receptor (Homo sapiens) (UniProt P00533); experiment: Inhibition of EGFR in human HT-29 cells assessed as reduction in Erk1/2 phosphorylation level at 2 uM by Western blotting analysis; type: cell-based; details: time 3-15 hrs, TDE = time-dependent effect
[34] = tested on: SW480; experiment: Inhibition of colony formation in double EGFR/HER2 knockdown human SW480 cells at 0.75 uM incubated for 14 days by crystal violet staining based colony formation assay; type: functional, cell-based; details: time 14.0 day
[35] = Toxicity in human HT-29 cells xenografted Balb/c mouse assessed as change in heart pathology at 2.5 mg/kg/day, ip administrated for every other day and measured after 28 days; type: organism-based; details: in vivo, 672 h, time 28 day
[36] = target: Epidermal growth factor receptor (Homo sapiens) (UniProt P00533); experiment: Inhibition of EGFR in human HT-29 cells assessed as reduction in MEK1/2 phosphorylation level at 2 uM by Western blotting analysis; type: cell-based; details: time 3-15 hrs, TDE = time-dependent effect
[37] = tested on: HT-29; experiment: Antitumor activity against human HT-29 cells xenografted Balb/c mouse assessed as reduction in tumor cell density at 2.5 mg/kg/day, ip administrated for every other day and measured after 28 days by Hematoxylin and Eosin staining based method; type: functional, organism-based; details: time 28.0 day

Chain of Epidermal growth factor receptor (Homo sapiens) (P00533 whole entry): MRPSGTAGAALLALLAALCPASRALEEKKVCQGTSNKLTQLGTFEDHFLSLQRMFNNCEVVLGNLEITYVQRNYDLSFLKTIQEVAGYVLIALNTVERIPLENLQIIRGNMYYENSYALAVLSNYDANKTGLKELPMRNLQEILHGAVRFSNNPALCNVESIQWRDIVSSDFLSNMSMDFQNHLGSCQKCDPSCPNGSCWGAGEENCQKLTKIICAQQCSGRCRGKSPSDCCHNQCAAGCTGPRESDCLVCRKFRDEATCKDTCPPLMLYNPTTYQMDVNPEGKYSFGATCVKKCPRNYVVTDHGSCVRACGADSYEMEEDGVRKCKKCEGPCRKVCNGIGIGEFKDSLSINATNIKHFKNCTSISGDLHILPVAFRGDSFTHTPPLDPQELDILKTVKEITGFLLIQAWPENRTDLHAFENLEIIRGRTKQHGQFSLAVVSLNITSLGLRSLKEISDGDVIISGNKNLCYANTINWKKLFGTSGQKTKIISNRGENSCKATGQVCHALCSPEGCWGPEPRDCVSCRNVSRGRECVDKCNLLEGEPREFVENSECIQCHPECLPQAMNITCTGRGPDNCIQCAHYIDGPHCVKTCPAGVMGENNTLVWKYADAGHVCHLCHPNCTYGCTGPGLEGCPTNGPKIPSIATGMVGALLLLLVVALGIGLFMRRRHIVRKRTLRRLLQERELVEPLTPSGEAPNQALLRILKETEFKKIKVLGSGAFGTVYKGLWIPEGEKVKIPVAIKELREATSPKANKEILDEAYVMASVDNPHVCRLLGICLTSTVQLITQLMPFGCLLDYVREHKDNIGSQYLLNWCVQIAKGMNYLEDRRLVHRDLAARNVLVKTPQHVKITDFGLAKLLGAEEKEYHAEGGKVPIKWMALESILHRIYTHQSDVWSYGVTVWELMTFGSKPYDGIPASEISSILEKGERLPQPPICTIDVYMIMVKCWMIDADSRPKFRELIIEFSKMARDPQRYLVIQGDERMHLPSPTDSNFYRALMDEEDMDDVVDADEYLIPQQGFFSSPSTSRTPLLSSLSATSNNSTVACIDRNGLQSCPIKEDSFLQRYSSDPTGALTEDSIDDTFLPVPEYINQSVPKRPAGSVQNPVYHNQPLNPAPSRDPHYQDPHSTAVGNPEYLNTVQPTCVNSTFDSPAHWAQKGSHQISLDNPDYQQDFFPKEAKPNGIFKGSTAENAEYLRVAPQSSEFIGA

Structure (SMILES): CC[C@H]1CCC[C@H](O[C@H]2CC[C@H](N(C)C)[C@@H](C)O2)[C@@H](C)C(=O)C2=C[C@@H]3[C@@H](C=C[C@@H]4C[C@@H](O[C@@H]5O[C@@H](C)[C@H](OC)[C@@H](OC)[C@H]5OC)C[C@@H]34)[C@@H]2CC(=O)O1 [SPINOSYN A]
inhibition [1]: Tde
inhibition [2]: Tde
Activity [3]: inactive
Activity [4]: Non-Toxic
inhibition [5]: Tde
inhibition [6]: Active
Activity [7]: Active
inhibition [8]: Active
Activity [9]: Non-Toxic
Activity [10]: Active
inhibition [11]: Active
inhibition [12]: Tde
inhibition [13]: Active
inhibition [14]: Active
Activity [15]: Non-Toxic
inhibition [16]: Active
inhibition [17]: Active
Activity [18]: Active

inhibition [21]: Tde
inhibition [26]: Active
inhibition [28]: Active
inhibition [31]: Active
inhibition [33]: Tde
inhibition [36]: Tde
Structure (SMILES): CC[C@H]1CCC[C@H](O[C@H]2CC[C@H](N(C)CC(O)CN3CCNCC3)[C@@H](C)O2)[C@@H](C)C(=O)C2=C[C@@H]3[C@@H](C=C[C@@H]4C[C@@H](O[C@@H]5O[C@@H](C)[C@H](OC)[C@@H](OC)[C@H]5OC)C[C@@H]34)[C@@H]2CC(=O)O1 (some centres not stated)
inhibition [19]: Active
Activity [20]: inactive
inhibition [22]: Active
Activity [23]: inactive
inhibition [24]: Active
Activity [25]: Non-Toxic
Activity [27]: Active
inhibition [29]: Active
Activity [30]: Non-Toxic
inhibition [32]: Active
Activity [34]: inactive
Activity [35]: Non-Toxic
Activity [37]: Active
